pIC50: −log10 of the molar value.
Test system: 171881-019-R-J1-PDC tumor spheroid viability
Assay: Anticancer human tumor 171881-019-R-J1-PDC patient-derived invasive breast carcinoma cell line growth inhibition [PI3K]
Settings: spheroids with HUVEC and MSC; for viability, T/C: stronger effect = lower value; active = viability on the fitted dose curve at most 10% of control; inactive = the rest
Summary of the method: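 Tumor cells grown as multi-cell spheroids with HUVEC endothelial cells and MSC fibroblast-like stroma were treated with targeted agents combined with inavolisib, alpelisib, duvelisib or copanlisib. Doses fell in half-log steps from near clinical Cmax, else from 10 microM. Viability was measured.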

[1] = curve of first compound, second compound 0.0316 µM
[2] = curve of first compound, second compound 0.1 µM
[3] = curve of first compound, second compound 0.316 µM
[4] = curve of first compound, second compound 1 µM
[5] = curve of first compound, second compound 3.16 µM
[6] = curve of first compound, second compound 10 µM
[7] = second compound 0.0316 µM, first compound 0.0316 µM
[8] = second compound 0.0316 µM, first compound 0.1 µM
[9] = second compound 0.0316 µM, first compound 0.316 µM
[10] = second compound 0.0316 µM, first compound 1 µM
[11] = second compound 0.0316 µM, first compound 3.16 µM
[12] = second compound 0.0316 µM, first compound 10 µM
[13] = second compound 0.1 µM, first compound 0.0316 µM
[14] = second compound 0.1 µM, first compound 0.1 µM
[15] = second compound 0.1 µM, first compound 0.316 µM
[16] = second compound 0.1 µM, first compound 1 µM
[17] = second compound 0.1 µM, first compound 3.16 µM
[18] = second compound 0.1 µM, first compound 10 µM
[19] = second compound 0.316 µM, first compound 0.0316 µM
[20] = second compound 0.316 µM, first compound 0.1 µM
[21] = second compound 0.316 µM, first compound 0.316 µM
[22] = second compound 0.316 µM, first compound 1 µM
[23] = second compound 0.316 µM, first compound 3.16 µM
[24] = second compound 0.316 µM, first compound 10 µM
[25] = second compound 1 µM, first compound 0.0316 µM
[26] = second compound 1 µM, first compound 0.1 µM
[27] = second compound 1 µM, first compound 0.316 µM
[28] = second compound 1 µM, first compound 1 µM
[29] = second compound 1 µM, first compound 3.16 µM
[30] = second compound 1 µM, first compound 10 µM
[31] = second compound 3.16 µM, first compound 0.0316 µM
[32] = second compound 3.16 µM, first compound 0.1 µM
[33] = second compound 3.16 µM, first compound 0.316 µM
[34] = second compound 3.16 µM, first compound 1 µM
[35] = second compound 3.16 µM, first compound 3.16 µM
[36] = second compound 3.16 µM, first compound 10 µM
[37] = second compound 10 µM, first compound 0.0316 µM
[38] = second compound 10 µM, first compound 0.1 µM
[39] = second compound 10 µM, first compound 0.316 µM
[40] = second compound 10 µM, first compound 1 µM
[41] = second compound 10 µM, first compound 3.16 µM
[42] = second compound 10 µM, first compound 10 µM
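Also: spheroids exposed to compound for 7 days before viability read.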
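For viability, T/C in this document: 100% = DMSO vehicle-treated spheroids.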

CC(C)NCC(C(=O)N1CCN(c2ncnc3c2C(C)CC3O)CC1)c1ccc(Cl)cc1 (stereo not given) + CC(Nc1ncnc2nc[nH]c12)c1cc2cccc(Cl)c2c(=O)n1-c1ccccc1
active: viability, T/C [18] 10.1% | viability, T/C [30] 8.65% | viability, T/C [36] 8.08% | viability, T/C [41] 9.56% | viability, T/C [42] 5.96%
6.45: pIC50 [5]
6.53: pIC50 [2]
6.41: pIC50 [1] | pIC50 [3]
6.40: pIC50 [4]
6.82: pIC50 [6]
inactive: viability, T/C [7] 96.1% | viability, T/C [8] 83.8% | viability, T/C [9] 54.5% | viability, T/C [10] 27.6% | viability, T/C [11] 14.6% | viability, T/C [12] 11.4% | viability, T/C [13] 97.6% | viability, T/C [14] 73.1% | viability, T/C [15] 48.4% | viability, T/C [16] 29.4% | viability, T/C [17] 14.6% | viability, T/C [19] 80% | viability, T/C [20] 82.8% | viability, T/C [21] 50.9% | viability, T/C [22] 30% | viability, T/C [23] 14.4% | viability, T/C [24] 9.02% | viability, T/C [25] 93.2% | viability, T/C [26] 81% | viability, T/C [27] 55.9% | viability, T/C [28] 28% | viability, T/C [29] 12.5% | viability, T/C [31] 78.6% | viability, T/C [32] 75.1% | viability, T/C [33] 51.2% | viability, T/C [34] 27.1% | viability, T/C [35] 11.5% | viability, T/C [37] 57% | viability, T/C [38] 53.6% | viability, T/C [39] 43% | viability, T/C [40] 21.6%

Cn1nccc1Nc1nccc(-c2ccn(C(CO)c3ccc(Cl)c(F)c3)c(=O)c2)n1 (stereo not given) + CC(Nc1ccc2c(c1)OCCn1cc(N3C(=O)OCC3C(F)F)nc1-2)C(N)=O
6.58: pIC50 (curve of first compound, second compound 0.00316 µM)
active: viability, T/C [17] 7.9% | viability, T/C [18] 5.46% | viability, T/C [22] 6.63% | viability, T/C [23] 4.45% | viability, T/C [24] 2.82% | viability, T/C [27] 7.66% | viability, T/C [28] 4.72% | viability, T/C [29] 3.76% | viability, T/C [30] 2.26%
inactive: viability, T/C (second compound 0.00316 µM, first compound 0.0316 µM) 92.5% | viability, T/C (second compound 0.00316 µM, first compound 0.1 µM) 67.2% | viability, T/C (second compound 0.00316 µM, first compound 0.316 µM) 46.7% | viability, T/C (second compound 0.00316 µM, first compound 1 µM) 33.7% | viability, T/C (second compound 0.00316 µM, first compound 3.16 µM) 22% | viability, T/C (second compound 0.00316 µM, first compound 10 µM) 19.2% | viability, T/C (second compound 0.01 µM, first compound 0.0316 µM) 69.6% | viability, T/C (second compound 0.01 µM, first compound 0.1 µM) 53.9% | viability, T/C (second compound 0.01 µM, first compound 0.316 µM) 30.6% | viability, T/C (second compound 0.01 µM, first compound 1 µM) 27.4% | viability, T/C (second compound 0.01 µM, first compound 3.16 µM) 18.2% | viability, T/C (second compound 0.01 µM, first compound 10 µM) 15% | viability, T/C [7] 47.4% | viability, T/C [8] 37.9% | viability, T/C [9] 23.1% | viability, T/C [10] 17.1% | viability, T/C [11] 11.8% | viability, T/C [12] 9.67% | viability, T/C [13] 33.5% | viability, T/C [14] 23.3% | viability, T/C [15] 15.9% | viability, T/C [16] 9.87% | viability, T/C [19] 21.6% | viability, T/C [20] 16.9% | viability, T/C [21] 10.6% | viability, T/C [25] 18.3% | viability, T/C [26] 13.9%
> 7.50: pIC50 [1] | pIC50 [2] | pIC50 [3] | pIC50 [4]
6.95: pIC50 (curve of first compound, second compound 0.01 µM)

CNC(=O)c1ccc(N2C(=S)N(c3ccc(C#N)c(C(F)(F)F)c3)C(=O)C2(C)C)cc1F + CC(Nc1ncnc2nc[nH]c12)c1cc2cccc(Cl)c2c(=O)n1-c1ccccc1
inactive: viability, T/C [7] 91.6% | viability, T/C [8] 78.6% | viability, T/C [9] 80.1% | viability, T/C [10] 86.4% | viability, T/C [11] 86.1% | viability, T/C [12] 71.2% | viability, T/C [13] 88.8% | viability, T/C [14] 85.9% | viability, T/C [15] 78.5% | viability, T/C [16] 85.6% | viability, T/C [17] 83.3% | viability, T/C [18] 69.8% | viability, T/C [19] 92.1% | viability, T/C [20] 93.3% | viability, T/C [21] 85.3% | viability, T/C [22] 92.4% | viability, T/C [23] 77% | viability, T/C [24] 69.9% | viability, T/C [25] 89.9% | viability, T/C [26] 100% | viability, T/C [27] 85.2% | viability, T/C [28] 86.9% | viability, T/C [29] 93.1% | viability, T/C [30] 70.7% | viability, T/C [31] 87.2% | viability, T/C [32] 85.9% | viability, T/C [33] 83.7% | viability, T/C [34] 80.1% | viability, T/C [35] 80.9% | viability, T/C [36] 64.5% | viability, T/C [37] 61.4% | viability, T/C [38] 58.2% | viability, T/C [39] 60.4% | viability, T/C [40] 57.2% | viability, T/C [41] 54% | viability, T/C [42] 43.7%
< 5.00: pIC50 [1] | pIC50 [2] | pIC50 [3] | pIC50 [4] | pIC50 [5]
5.31: pIC50 [6]

C=CC(=O)N1CCN(c2nc(=O)n(-c3c(C)ccnc3C(C)C)c3nc(-c4c(O)cccc4F)c(F)cc23)C(C)C1 (stereo not given)
inactive: viability, T/C (compound 0.0316 µM) 95.3% [middle of 4 runs] | viability, T/C (compound 0.1 µM) 84.4% [middle of 4 runs] | viability, T/C (compound 0.316 µM) 92.5% [middle of 4 runs] | viability, T/C (compound 1 µM) 94.6% [middle of 4 runs] | viability, T/C (compound 3.16 µM) 91.7% [middle of 4 runs] | viability, T/C (compound 10 µM) 56.1% [middle of 4 runs]
< 5.00: pIC50 (curve of compound)

CCCS(=O)(=O)Nc1ccc(F)c(C(=O)c2c[nH]c3ncc(-c4ccc(Cl)cc4)cc23)c1F + CC(Nc1ncnc2nc[nH]c12)c1cc2cccc(Cl)c2c(=O)n1-c1ccccc1
inactive: viability, T/C [7] 90.8% | viability, T/C [8] 87.2% | viability, T/C [9] 97.2% | viability, T/C [10] 84.1% | viability, T/C [11] 92.3% | viability, T/C [12] 12.2% | viability, T/C [13] 98.7% | viability, T/C [14] 81.3% | viability, T/C [15] 95% | viability, T/C [16] 91.4% | viability, T/C [17] 83.3% | viability, T/C [18] 12.8% | viability, T/C [19] 87.4% | viability, T/C [20] 89.1% | viability, T/C [21] 103% | viability, T/C [22] 101% | viability, T/C [23] 83.2% | viability, T/C [24] 11.3% | viability, T/C [25] 95.1% | viability, T/C [26] 107% | viability, T/C [27] 106% | viability, T/C [28] 105% | viability, T/C [29] 97.7% | viability, T/C [30] 11.9% | viability, T/C [31] 90.9% | viability, T/C [32] 97% | viability, T/C [33] 104% | viability, T/C [34] 121% | viability, T/C [35] 103% | viability, T/C [37] 67.8% | viability, T/C [38] 70.7% | viability, T/C [39] 77.2% | viability, T/C [40] 90.8% | viability, T/C [41] 82.2%
5.31: pIC50 [6]
active: viability, T/C [36] 9.5% | viability, T/C [42] 6.77%
5.26: pIC50 [2]
5.24: pIC50 [1]
5.22: pIC50 [4] | pIC50 [5]
5.27: pIC50 [3]

Reference: PubChem BioAssay AID1963986 (Molecular Pharmacology Branch, DTP, NCI, 2024)
